“Also recorded” adds a separate entry of the source.
Assays:
Pieris rapae [1] = experiment: 4-hour feeding damage test on Arabidopsis thaliana (Example 3); format: in vivo; conditions: for pest damage-suppressing activity: Pieris rapae larva, 4-hour feeding damage test
Source text: The recombinant Arabidopsis thaliana […]: : GCaMP3 was used as a plant material, and cut was formed on the first leaf of the plant grown in the same manner as in Example 1 and treated with a compound. Compound 1 was used as the compound. Sorbitol was used as the negative control, and glutamic acid as the positive control. The test was repeatedly conducted 10 times (using independent plants and pests) per plot. One hour after the treatment with the compound, the plant body and 2-week old larva of Pieris rapae were placed in the same container to perform a 4-hour feeding damage test. Weights of the plant body and larva were measured before and after the test to evaluate the weight of the feeding-damaged plant and the weight gain rate of the pest.

Spodoptera litura = experiment: Komatsuna leaf disc feeding damage test (Example 5); format: in vivo; conditions: one day
Experimental: Glutamic acid was used as a positive control, and Jasmomate Ekizai (the active substance is prohydrojasmon, a typical injurious hormone-like substance), which is the only resistance inducer for pest damage on the market, was used as a control. The test was conducted for 10 replicates per plot (independent plants and pests).
The plant material was leaf discs collected from komatsuna (Brassica rapa var. perviridis) seedlings grown for 1 month after seeding on culture soil in pots, and the test organism was early second instar larva of Spodoptera litura. Compound 1 was used as a 1 mM solution in Silwet L-77 4,000-fold dilution solution prepared by adding Silwet L-77 to distilled water as a solvent. As a negative control, 100 mM or 1 mM sorbitol was used, and 100 mM or 1 mM glutamic acid was used as a positive control. […] One day after the release, the number of surviving Spodoptera litura larvae in each test container was counted, and a photograph was taken from a height of 5 cm above the container with the lid open so that the entire image could be photographed. Image analysis software (ImageJ) was used to determine the damage area (feeding damage area), and the average damage area ratio was calculated for each treatment plot.

[2] = system: glutamate receptor of Arabidopsis thaliana; experiment: Real-time imaging assay of Ca2+ signals in recombinant Arabidopsis thaliana p35S::GCaMP3; format: in vivo; conditions: 3 μL of 100 mM solution (10 mM for some compounds with low solubility) applied to leaf cut; GCaMP3 fluorescence
Experimental: In this example, Ca2+signals produced by contact of Compounds 1-58 and 67-75 with the glutamate receptor of Arabidopsis thaliana were analyzed by a real-time imaging assay in which Ca2+is visualized by fluorescence color development. That is, by using a recombinant Arabidopsis thaliana p35S: : GCaMP3, which incorporated the gene encoding the calcium-sensitive fluorescent protein GCaMP3, as a material, changes in intracellular Ca2+ levels caused by treatments with Compounds 1-58 and 67-75 were detected as fluorescence luminance of GCaMP3, and thereby Ca2+signal transduction in plant bodies was analyzed in real time.
The real-time imaging assay of the Ca2+signals was performed as follows.
As the plant material, 2-week old recombinant Arabidopsis thaliana p35S: : GCaMP3 grown on sterile agar medium was used. A small cut of about 1 mm was made at the tip of the first leaf with scissors, and the plant was allowed to stand for 35 minutes. The plant was then placed under the field of view of the fluorescence microscope SMZ25 (Nikon Solutions), and 3 μL of a compound solution was applied to the leaf cut. The generated Ca2+signals were examined in real time with ORCA-Flash4.0 V2 (Hamamatsu Photonics). […] Compounds that produced Ca2+signals in one or more leaves were determined to be compounds that induce Ca2+signals.

Pieris rapae [3] = experiment: 4-hour feeding damage test on Arabidopsis thaliana, comparison with commercial product (Example 4); format: in vivo; conditions: Compound 1 at 100 mM on leaf cut, 4-hour test
Experimental: The recombinant Arabidopsis thaliana […]: : GCaMP3 was used as a plant material, and cut was formed on the first leaf of the plant cultivated in the same manner as those of Examples 1, 2, and 3 and treated with a compound. Compound 1 and Jasmomate were used as the compound. Compound 1 was used at 100 mM, and Jasmomate was used at a 500-fold dilution concentration (0.4 mM as prohydrojasmon concentration), which is the usual recommended treatment concentration thereof. Sorbitol was used as a negative control. The test was conducted for 15 replicates per plot (independent plants and insects). For Jasmomate, a spray treatment of the leaves was performed (spray plot, Jasmomate was sprayed twice at the concentration mentioned above with an atomizer). The test of the spray plot was conducted for 10 replicates (independent plants and insects). One hour after the compound treatment, the plant body and 2-week old larva of Pieris rapae were placed in the same container to perform a 4-hour feeding damage test. The larva was weighed before and after the test, and the weight gain rate of the pest was evaluated.

AtOPR^3 gene = experiment: Pest damage resistance gene expression induction by qPCR; format: in vivo, Arabidopsis thaliana; conditions: sixth leaves, 30 minutes after compound treatment of cut first leaf; relative to AtACT8; FIG. 1
Source text: As the pest damage resistance gene, the AtOPR^3 (12-oxophytodienoic acid reductase, involved in the jasmonic acid biosynthesis) gene, which is a typical pest damage resistance gene, was selected. As an internal standard, the AtACT8 gene was selected. The recombinant Arabidopsis thaliana p35S: : GCaMP3 was used as a plant material, and cut was formed on the first leaf of the plant cultivated in the same manner as in Example 1 and treated with a compound. As the compound, Compounds 1 and 34 were used. Sixth leaves at 0 and 30 minutes after the compound treatment were collected and frozen in liquid nitrogen. The total RNA was extracted from the frozen leaf samples (50 to 200 mg) by using RNeasy Plant Mini Kit (Qiagen) according to the protocol thereof. The obtained total RNA was subjected to a residual genomic DNA-removing treatment with RNase free DNase I by using TURBO DNase Kit (Ambion) according to the protocol of the kit. By using this total RNA sample and SuperScriptIII First-Strand Synthesis System for RT-PCR (Invitrogen), single-stranded cDNA was prepared. […] The relative expression amount of the AtOPR^3 gene to that of the internal standard AtACT8 gene was calculated by the AACt method. The test was repeatedly performed 4 or 5 times, and the average of the results was calculated.

Row | SMILES | pest damage-suppressing activity (Pieris rapae [1]) | pest damage-suppressing tendency (Spodoptera litura; 100 mM, compared with 100 mM sorbitol plot) | Ca2+signal induction [2] | pest damage-suppressing activity (Pieris rapae [3]) | weight gain rate of the pest (Pieris rapae [3]; vs sorbitol plot, FIG. 4) | pest damage resistance gene (AtOPR^3) expression-inducing activity (AtOPR^3 gene) | weight of the feeding-damaged plant (Pieris rapae [1]; 2-week old Pieris rapae larva, 4-hour test 1 hour after treatment, vs sorbitol plot, FIG. 2) | weight gain rate of the pest (Pieris rapae [1]; 2-week old Pieris rapae larva, 4-hour test 1 hour after treatment, vs sorbitol plot, FIG. 3) | pest damage-suppressing effect (feeding inhibitory effect) (Spodoptera litura; 1 mM in Silwet L-77 4,000-fold dilution solution)
1 | N[C@@H](CCC(=O)O)C(=O)O [glutamic acid, reference compound] | no pest damage-suppressing activity was observed | greater pest damage-suppressing tendency was observed | – | – | – | – | – | – | –
2 | CC(C)OC(=O)CC[C@H](N)C(=O)O [Compound 1] | distinct pest damage-suppressing activity was observed | – | strong Ca2+signal induction | distinct pest damage-suppressing activity was observed | lower in the Compound 1-treated plot than in the sorbitol-treated plot | equal to or greater than that of glutamic acid; also recorded: high pest damage resistance gene expression-inducing activity | lower in the Compound 1-treated plot than in the sorbitol-treated plot | lower in the Compound 1-treated plot than in the sorbitol-treated plot | higher than those observed for the 100 mM glutamic acid treatment plot and Jasumomate treatment plot
3 | N[C@@H](CCC(=O)N[C@@H](CCC(=O)O)C(=O)O)C(=O)O [Compound 34] | – | – | strong Ca2+signal induction | – | – | equal to or greater than that of glutamic acid | – | – | –
